{"source": "patent US20240384350A1", "about": "“METHODS OF TREATING CANCER WITH KINASE INHIBITORS” (BOARD OF REGENTS, THE UNIVERSITY OF TEXAS SYSTEM, priority 2021, published 2024)", "test_in_all_cases": "Ba/F3 drug screening, Cell Titer Glo, IC50 Mut/WT", "format_in_all_cases": "cell-based", "key": {"EGFR R776H": {"molecular_target": "T1, EGFR R776H (Homo sapiens, UniProt P00533, R776H)", "T1 construct": "host or cells: Ba/F3", "conditions": "PACC; R776H; Ba/F3; 72 hours"}, "EGFR Ex19del/T790M/G724S": {"molecular_target": "T2, EGFR Ex19del/T790M/G724S (Homo sapiens, UniProt P00533, DEL746-750/G724S/T790M)", "T2 construct": "expressed in transfected cells; host or cells: Ba/F3", "conditions": "T790M-like-3S, 72 hours", "protocol": "(§1) Data represent the ratio of the IC50 value for a given TKI for cells with a T790M-like-3S EGFR mutation to the IC50 value for cells with wildtype EGFR.\n(§2) Ba/F3 cell generation, drug screening, and IC50 approximations. Ba/F3 cells were obtained as a gift from Dr. Gordon Mills (MD Anderson Cancer Center), and maintained in RPMI (Sigma) containing 10% FBS, 1% penicillin/streptomycin, and 10 ng/ml recombinant mIL-3 (R&D Biosystems). To establish stable Ba/F3 cell lines, Ba/F3 cells were transduced with retroviruses containing mutant EGFR plasmids for 12-24 hours.\n(§3) After 48-72 hours of transduction, 2 μg/ml puromycin (Invitrogen) was added to Ba/F3 cell lines in complete RPMI. To select for EGFR positive cell lines, cells were stained with PE-EGFR (Biolegend) and sorted by FACS. After sorting, EGFR positive cells were maintained in RPMI containing 10% FBS, 1% penicillin/streptomycin, and 1 ng/ml EGF to support cell viability. Drug screening was performed as previously described^41,42. Shortly, cells were plated in 384-well plates (Greiner Bio-One) at 2000-3000 cells per well in technical triplicate. Seven different concentrations of TKIs or DMSO vehicle were added to reach a final volume of 40 μL per well. After 72 hours, 11 μL of Cell Titer Glo (Promega) was added to each well. Plates were incubated for a minimum of 10 minutes, and bioluminescence was determined using a FLUOstar OPTIMA plate reader (BMG LABTECH). Raw bioluminescence values were normalized to DMSO control treated cells, and values were plotted in GraphPad Prism. […] Drug screens were performed in technical triplicate on each plate and either duplicate or triplicate biological replicates."}, "EGFR L858R T790M V843I": {"molecular_target": "T3, EGFR L858R T790M V843I (Homo sapiens, UniProt P00533, L858R/T790M/V843I)", "T3 construct": "expressed in transfected cells; host or cells: Ba/F3", "conditions": "T790M-like-3S, 72 hours"}, "[1]": {"molecular_target": "T4, EGFR L747_K754del insATSPE (Homo sapiens, UniProt P00533, DEL747-749/K754E)", "T4 construct": "expressed in transfected cells; host or cells: Ba/F3 cells, retroviral pBabe-Puro vector", "conditions": "T790M-like-3S, 72 hours", "protocol": "as §1, §2, §3"}, "EGFR S768I": {"molecular_target": "T5, EGFR S768I (Homo sapiens, UniProt P00533, S768I)", "T5 construct": "expressed in transfected cells; host or cells: Ba/F3", "conditions": "PACC; S768I; Ba/F3; 72 hours", "protocol": "(§4) Data represent the ratio of the IC50 value for a given TKI for cells with a PACC EGFR mutation to the IC50 value for cells with wildtype EGFR.\nas §2\n(§5) After 48-72 hours of transduction, 2 μg/ml puromycin (Invitrogen) was added to Ba/F3 cell lines in complete RPMI. To select for EGFR positive cell lines, cells were stained with PE-EGFR (Biolegend) and sorted by FACS. After sorting, EGFR positive cells were maintained in RPMI containing 10% FBS, 1% penicillin/streptomycin, and 1 ng/ml EGF to support cell viability. Drug screening was performed as previously described^41,42. Shortly, cells were plated in 384-well plates (Greiner Bio-One) at 2000-3000 cells per well in technical triplicate. Seven different concentrations of TKIs or DMSO vehicle were added to reach a final volume of 40 μL per well. After 72 hours, 11 μL of Cell Titer Glo (Promega) was added to each well. Plates were incubated for a minimum of 10 minutes, and bioluminescence was determined using a FLUOstar OPTIMA plate reader (BMG LABTECH). Raw bioluminescence values were normalized to DMSO control treated cells, and values were plotted in GraphPad Prism. […] Drug screens were performed in technical triplicate on each plate and either duplicate or triplicate biological replicates. […] Statistical differences between groups were determined by ANOVA as described in the figure legends."}, "EGFR L718Q": {"molecular_target": "T6, EGFR L718Q (Homo sapiens, UniProt P00533, L718Q)", "T6 construct": "expressed in transfected cells; host or cells: Ba/F3", "conditions": "PACC; L718Q; Ba/F3; 72 hours"}, "EGFR L858R S784F": {"molecular_target": "T7, EGFR L858R S784F (Homo sapiens, UniProt P00533, L858R/S784F)", "T7 construct": "expressed in transfected cells; host or cells: Ba/F3 cells, retroviral pBabe-Puro vector (vector made by GeneScript from EGFR L858R)", "conditions": "Classical-Like, 72 hours"}, "EGFR L858R G724S": {"molecular_target": "T8, EGFR L858R G724S (Homo sapiens, UniProt P00533, G724S/L858R)", "T8 construct": "expressed in transfected cells; host or cells: Ba/F3 (retroviral transduction, pBabe-Puro based vectors)", "conditions": "PACC; L858R G724S; Ba/F3; 72 hours"}, "EGFR L833F": {"molecular_target": "T9, EGFR L833F (Homo sapiens, UniProt P00533, L833F)", "T9 construct": "expressed in transfected cells; host or cells: Ba/F3 cells, retroviral pBabe-Puro vector", "conditions": "Classical-Like, 72 hours", "protocol": "Data represent the ratio of the IC50 value for a given TKI for cells with a classical-like EGFR mutation to the IC50 value for cells with wildtype EGFR.\nas §2\nAfter 48-72 hours of transduction, 2 μg/ml puromycin (Invitrogen) was added to Ba/F3 cell lines in complete RPMI. To select for EGFR positive cell lines, cells were stained with PE-EGFR (Biolegend) and sorted by FACS. After sorting, EGFR positive cells were maintained in RPMI containing 10% FBS, 1% penicillin/streptomycin, and 1 ng/ml EGF to support cell viability. […] Shortly, cells were plated in 384-well plates (Greiner Bio-One) at 2000-3000 cells per well in technical triplicate. Seven different concentrations of TKIs or DMSO vehicle were added to reach a final volume of 40 μL per well. After 72 hours, 11 μL of Cell Titer Glo (Promega) was added to each well. Plates were incubated for a minimum of 10 minutes, and bioluminescence was determined using a FLUOstar OPTIMA plate reader (BMG LABTECH). Raw bioluminescence values were normalized to DMSO control treated cells, and values were plotted in GraphPad Prism. […] Drug screens were performed in technical triplicate on each plate and either duplicate or triplicate biological replicates."}, "EGFR S811F": {"molecular_target": "T10, EGFR S811F (Homo sapiens, UniProt P00533, S811F)", "T10 construct": "expressed in transfected cells; host or cells: Ba/F3 cells, retroviral pBabe-Puro vector (vector made by GeneScript from EGFR WT)", "conditions": "Classical-Like, 72 hours"}, "EGFR A767insASV": {"molecular_target": "T11, EGFR A767insASV (Homo sapiens, UniProt P00533, DUP767-769)", "T11 construct": "expressed in transfected cells; host or cells: Ba/F3 cells, retroviral pBabe-Puro vector", "conditions": "Ex20, 72 hours", "protocol": "Data represent the ratio of the IC50 value for a given TKI for cells with an ex20ins EGFR mutation to the IC50 value for cells with wildtype EGFR.\nas §2, §5"}, "EGFR Ex19del T854I": {"molecular_target": "T12, EGFR Ex19del T854I (Homo sapiens, UniProt P00533, DEL746-750/T854I)", "T12 construct": "expressed in transfected cells; host or cells: Ba/F3 (retroviral transduction, pBabe-Puro based vectors)", "conditions": "PACC; Ex19del T854I; Ba/F3; 72 hours", "protocol": "as §4, §2, §3"}, "EGFR E709A G719S": {"molecular_target": "T13, EGFR E709A G719S (Homo sapiens, UniProt P00533, E709A/G719S)", "T13 construct": "expressed in transfected cells; host or cells: Ba/F3", "conditions": "PACC; E709A G719S; Ba/F3; 72 hours", "protocol": "as §4, §2, §3"}, "EGFR S768I/T790M": {"molecular_target": "T14, EGFR S768I/T790M (Homo sapiens, UniProt P00533, S768I/T790M)", "T14 construct": "expressed in transfected cells; host or cells: Ba/F3", "conditions": "T790M-like-3S, 72 hours"}, "EGFR K757R": {"molecular_target": "T15, EGFR K757R (Homo sapiens, UniProt P00533, K757R)", "T15 construct": "expressed in transfected cells; host or cells: Ba/F3", "conditions": "PACC; K757R; Ba/F3; 72 hours"}, "EGFR D770insNPG": {"molecular_target": "T16, EGFR D770insNPG (Homo sapiens, UniProt P00533, INS770NPG)", "T16 construct": "expressed in transfected cells; host or cells: Ba/F3 cells, retroviral pBabe-Puro vector", "conditions": "Ex20, 72 hours"}, "EGFR H773insNPH": {"molecular_target": "T17, EGFR H773insNPH (Homo sapiens, UniProt P00533, INS773NPH)", "T17 construct": "expressed in transfected cells; host or cells: Ba/F3 cells, retroviral pBabe-Puro vector", "conditions": "Ex20, 72 hours"}, "EGFR V774M": {"molecular_target": "T18, EGFR V774M (Homo sapiens, UniProt P00533, V774M)", "T18 construct": "host or cells: Ba/F3", "conditions": "PACC; V774M; Ba/F3; 72 hours", "protocol": "as §4, §2, §3"}, "EGFR V769L": {"molecular_target": "T19, EGFR V769L (Homo sapiens, UniProt P00533, V769L)", "T19 construct": "expressed in transfected cells; host or cells: Ba/F3", "conditions": "PACC; V769L; Ba/F3; 72 hours"}, "EGFR L718Q T790M": {"molecular_target": "T20, EGFR L718Q T790M (Homo sapiens, UniProt P00533, L718Q/T790M)", "T20 construct": "expressed in transfected cells; host or cells: Ba/F3", "conditions": "T790M-like-3R, 72 hours"}, "EGFR L858R L718Q": {"molecular_target": "T21, EGFR L858R L718Q (Homo sapiens, UniProt P00533, L718Q/L858R)", "T21 construct": "host or cells: Ba/F3", "conditions": "PACC; L858R L718Q; Ba/F3; 72 hours"}, "EGFR R776C": {"molecular_target": "T22, EGFR R776C (Homo sapiens, UniProt P00533, R776C)", "T22 construct": "host or cells: Ba/F3", "conditions": "PACC; R776C; Ba/F3; 72 hours"}, "EGFR L858R/T790M/L718Q": {"molecular_target": "T23, EGFR L858R/T790M/L718Q (Homo sapiens, UniProt P00533, L718Q/L858R/T790M)", "T23 construct": "expressed in transfected cells; host or cells: Ba/F3", "conditions": "T790M-like-3R, 72 hours"}, "EGFR L833V": {"molecular_target": "T24, EGFR L833V (Homo sapiens, UniProt P00533, L833V)", "T24 construct": "expressed in transfected cells; host or cells: Ba/F3 cells, retroviral pBabe-Puro vector", "conditions": "Classical-Like, 72 hours"}, "EGFR Ex19del/L792H": {"molecular_target": "T25, EGFR Ex19del/L792H (Homo sapiens, UniProt P00533, DEL746-750/L792H)", "T25 construct": "expressed in transfected cells; host or cells: Ba/F3", "conditions": "PACC; Ex19del/L792H; Ba/F3; 72 hours"}, "EGFR L858R T790M L718V": {"molecular_target": "T26, EGFR L858R T790M L718V (Homo sapiens, UniProt P00533, L718V/L858R/T790M)", "T26 construct": "expressed in transfected cells; host or cells: Ba/F3", "conditions": "T790M-like-3R, 72 hours"}}, "data": [{"smiles": "COc1cc2ncnc(Nc3cccc(Cl)c3F)c2cc1OC(=O)N1CCN(C)C[C@H]1C", "note": "[AZD3759]", "values": [{"measurement": "ratio of IC50 for cells with mutant EGFR to IC50 for cells with wildtype EGFR (Mut/WT)", "setting": "EGFR R776H", "result": 0.02185}, {"measurement": "ratio of IC50 for cells with mutant EGFR to IC50 for cells with wildtype EGFR (Mut/WT)", "setting": "EGFR Ex19del/T790M/G724S", "result": 4.645}, {"measurement": "ratio of IC50 for cells with mutant EGFR to IC50 for cells with wildtype EGFR (Mut/WT)", "setting": "EGFR L858R T790M V843I", "result": 9.625}, {"measurement": "ratio of IC50 for cells with mutant EGFR to IC50 for cells with wildtype EGFR (Mut/WT)", "setting": "[1]", "result": 4.604}, {"measurement": "ratio of IC50 for cells with mutant EGFR to IC50 for cells with wildtype EGFR (Mut/WT)", "setting": "EGFR S768I", "result": 0.145}, {"measurement": "ratio of IC50 for cells with mutant EGFR to IC50 for cells with wildtype EGFR (Mut/WT)", "setting": "EGFR L718Q", "result": 1.696}, {"measurement": "ratio of IC50 for cells with mutant EGFR to IC50 for cells with wildtype EGFR (Mut/WT)", "setting": "EGFR L858R S784F", "result": 0.01546}, {"measurement": "ratio of IC50 for cells with mutant EGFR to IC50 for cells with wildtype EGFR (Mut/WT)", "setting": "EGFR L858R G724S", "result": 0.0005419}, {"measurement": "ratio of IC50 for cells with mutant EGFR to IC50 for cells with wildtype EGFR (Mut/WT)", "setting": "EGFR L833F", "result": 0.1249}, {"measurement": "ratio of IC50 for cells with mutant EGFR to IC50 for cells with wildtype EGFR (Mut/WT)", "setting": "EGFR S811F", "result": 0.006423}, {"measurement": "ratio of IC50 for cells with mutant EGFR to IC50 for cells with wildtype EGFR (Mut/WT)", "setting": "EGFR A767insASV", "result": 4.154}, {"measurement": "ratio of IC50 for cells with mutant EGFR to IC50 for cells with wildtype EGFR (Mut/WT)", "setting": "EGFR Ex19del T854I", "result": 1.509}, {"measurement": "ratio of IC50 for cells with mutant EGFR to IC50 for cells with wildtype EGFR (Mut/WT)", "setting": "EGFR E709A G719S", "result": 0.2131}, {"measurement": "ratio of IC50 for cells with mutant EGFR to IC50 for cells with wildtype EGFR (Mut/WT)", "setting": "EGFR S768I/T790M", "result": 7.218}, {"measurement": "ratio of IC50 for cells with mutant EGFR to IC50 for cells with wildtype EGFR (Mut/WT)", "setting": "EGFR K757R", "result": 0.7085}, {"measurement": "ratio of IC50 for cells with mutant EGFR to IC50 for cells with wildtype EGFR (Mut/WT)", "setting": "EGFR D770insNPG", "result": 3.835}, {"measurement": "ratio of IC50 for cells with mutant EGFR to IC50 for cells with wildtype EGFR (Mut/WT)", "setting": "EGFR H773insNPH", "result": 1.561}, {"measurement": "ratio of IC50 for cells with mutant EGFR to IC50 for cells with wildtype EGFR (Mut/WT)", "setting": "EGFR V774M", "result": 0.3139}, {"measurement": "ratio of IC50 for cells with mutant EGFR to IC50 for cells with wildtype EGFR (Mut/WT)", "setting": "EGFR V769L", "result": 0.9765}, {"measurement": "ratio of IC50 for cells with mutant EGFR to IC50 for cells with wildtype EGFR (Mut/WT)", "setting": "EGFR L718Q T790M", "result": 9.625}, {"measurement": "ratio of IC50 for cells with mutant EGFR to IC50 for cells with wildtype EGFR (Mut/WT)", "setting": "EGFR L858R L718Q", "result": 0.3765}, {"measurement": "ratio of IC50 for cells with mutant EGFR to IC50 for cells with wildtype EGFR (Mut/WT)", "setting": "EGFR R776C", "result": 0.1522}, {"measurement": "ratio of IC50 for cells with mutant EGFR to IC50 for cells with wildtype EGFR (Mut/WT)", "setting": "EGFR L858R/T790M/L718Q", "result": 4.812}, {"measurement": "ratio of IC50 for cells with mutant EGFR to IC50 for cells with wildtype EGFR (Mut/WT)", "setting": "EGFR L833V", "result": 0.1488}, {"measurement": "ratio of IC50 for cells with mutant EGFR to IC50 for cells with wildtype EGFR (Mut/WT)", "setting": "EGFR Ex19del/L792H", "result": 9.625}, {"measurement": "ratio of IC50 for cells with mutant EGFR to IC50 for cells with wildtype EGFR (Mut/WT)", "setting": "EGFR L858R T790M L718V", "result": 4.812}]}]}
